System: K86415-001-R-J1-PDC complex spheroids, viability
Assay: Anticancer human tumor K86415-001-R-J1-PDC patient-derived lung adenocarcinoma cell line growth inhibition [RAS]
Conditions: for viability, T/C: stronger effect = lower value
Method in brief: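 Agents were tested in combination matrices in half-log decrements from a top concentration at or near clinical Cmax (10 microM if undetermined). Targets were multi-cell spheroids of tumour lines plus HUVEC and MSC stromal cells.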

[1] = curve of first compound, second compound 0.000949 µM
[2] = curve of first compound, second compound 0.003 µM
[3] = curve of first compound, second compound 0.00949 µM
[4] = curve of first compound, second compound 0.03 µM
[5] = curve of first compound, second compound 0.0949 µM
[6] = curve of first compound, second compound 0.3 µM
[7] = second compound 0.000949 µM, first compound 0.0316 µM
[8] = second compound 0.000949 µM, first compound 0.1 µM
[9] = second compound 0.003 µM, first compound 0.0316 µM
[10] = second compound 0.003 µM, first compound 0.1 µM
[11] = second compound 0.00949 µM, first compound 0.0316 µM
[12] = second compound 0.00949 µM, first compound 0.1 µM
[13] = second compound 0.03 µM, first compound 0.0316 µM
[14] = second compound 0.03 µM, first compound 0.1 µM
[15] = second compound 0.0949 µM, first compound 0.0316 µM
[16] = second compound 0.0949 µM, first compound 0.1 µM
[17] = second compound 0.3 µM, first compound 0.0316 µM
[18] = second compound 0.3 µM, first compound 0.1 µM
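Further: spheroids exposed to agents for seven days before readout.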

## CC(C)n1nc(-c2ccc3oc(N)nc3c2)c2c(N)ncnc21 + CCn1c(-c2cc(N3CCN(C)CC3)cnc2C(C)OC)c2c3cc(ccc31)-c1csc(n1)CC(NC(=O)C1CC1C)C(=O)N1CCCC(N1)C(=O)OCC(C)(C)C2
[1]
  IC50: < 0.316 nM
[2]
  IC50: < 0.316 nM
[3]
  IC50: < 0.316 nM
[4]
  IC50: < 0.316 nM
[5]
  IC50: < 0.316 nM
[6]
  IC50: < 0.316 nM
Second compound 0.000949 µM, first compound 0.000316 µM
  viability, T/C: 46.4%
Second compound 0.000949 µM, first compound 0.001 µM
  viability, T/C: 46.7%
Second compound 0.000949 µM, first compound 0.00316 µM
  viability, T/C: 39.5%
Second compound 0.000949 µM, first compound 0.01 µM
  viability, T/C: 43.9%
[7]
  viability, T/C: 35.4%
[8]
  viability, T/C: 20.4%
Second compound 0.003 µM, first compound 0.000316 µM
  viability, T/C: 23.1%
Second compound 0.003 µM, first compound 0.001 µM
  viability, T/C: 17.4%
Second compound 0.003 µM, first compound 0.00316 µM
  viability, T/C: 18.4%
Second compound 0.003 µM, first compound 0.01 µM
  viability, T/C: 16.3%
[9]
  viability, T/C: 23.8%
[10]
  viability, T/C: 7.47%
Second compound 0.00949 µM, first compound 0.000316 µM
  viability, T/C: 11.5%
Second compound 0.00949 µM, first compound 0.001 µM
  viability, T/C: 9.33%
Second compound 0.00949 µM, first compound 0.00316 µM
  viability, T/C: 9.17%
Second compound 0.00949 µM, first compound 0.01 µM
  viability, T/C: 8.21%
[11]
  viability, T/C: 3.17%
[12]
  viability, T/C: 2.45%
Second compound 0.03 µM, first compound 0.000316 µM
  viability, T/C: 5.52%
Second compound 0.03 µM, first compound 0.001 µM
  viability, T/C: 4.5%
Second compound 0.03 µM, first compound 0.00316 µM
  viability, T/C: 3.7%
Second compound 0.03 µM, first compound 0.01 µM
  viability, T/C: 2.13%
[13]
  viability, T/C: 0.97%
[14]
  viability, T/C: 1.14%
Second compound 0.0949 µM, first compound 0.000316 µM
  viability, T/C: 3.75%
Second compound 0.0949 µM, first compound 0.001 µM
  viability, T/C: 3.4%
Second compound 0.0949 µM, first compound 0.00316 µM
  viability, T/C: 2.07%
Second compound 0.0949 µM, first compound 0.01 µM
  viability, T/C: 1.07%
[15]
  viability, T/C: 0.49%
[16]
  viability, T/C: 0.77%
Second compound 0.3 µM, first compound 0.000316 µM
  viability, T/C: 2.48%
Second compound 0.3 µM, first compound 0.001 µM
  viability, T/C: 2.57%
Second compound 0.3 µM, first compound 0.00316 µM
  viability, T/C: 2.13%
Second compound 0.3 µM, first compound 0.01 µM
  viability, T/C: 0.8%
[17]
  viability, T/C: 0.57%
[18]
  viability, T/C: 0.8%

## CCN1CCN(Cc2ccc(Nc3ncc(F)c(-c4cc(F)c5nc(C)n(C(C)C)c5c4)n3)nc2)CC1
Compound 0.00316 µM
  viability, T/C: 97.9% [middle of 4 runs]
Compound 0.01 µM
  viability, T/C: 90.2% [middle of 4 runs]
Compound 0.0316 µM
  viability, T/C: 78.5% [middle of 4 runs]
Compound 0.1 µM
  viability, T/C: 71.3% [middle of 4 runs]
Compound 0.316 µM
  viability, T/C: 70.2% [middle of 4 runs]
Compound 1 µM
  viability, T/C: 71.4% [middle of 4 runs]
Curve of compound
  IC50: > 1000 nM

## CC(=O)OC12COC1CC(O)C1(C)C(=O)C(O)C3=C(C)C(OC(=O)C(O)C(NC(=O)OC(C)(C)C)c4ccccc4)CC(O)(C(OC(=O)c4ccccc4)C21)C3(C)C (stereo unspecified) + CCn1c(-c2cccnc2C(C)OC)c2c3cc(ccc31)N1CCOC(CC(NC(=O)C(C(C)C)N(C)C(=O)C3(F)CCN(C(=O)C#CC(C)(C)N(C)C)CC3)C(=O)N3CCCC(N3)C(=O)OCC(C)(C)C2)C1
[1]
  IC50: < 31.6 nM
[2]
  IC50: < 31.6 nM
[3]
  IC50: < 31.6 nM
[4]
  IC50: < 31.6 nM
[5]
  IC50: < 31.6 nM
[6]
  IC50: < 31.6 nM
[7]
  viability, T/C: 18.7%
[8]
  viability, T/C: 15.3%
Second compound 0.000949 µM, first compound 0.316 µM
  viability, T/C: 11.3%
Second compound 0.000949 µM, first compound 1 µM
  viability, T/C: 17.3%
Second compound 0.000949 µM, first compound 3.16 µM
  viability, T/C: 16.2%
Second compound 0.000949 µM, first compound 10 µM
  viability, T/C: 12.4%
[9]
  viability, T/C: 15.4%
[10]
  viability, T/C: 12%
Second compound 0.003 µM, first compound 0.316 µM
  viability, T/C: 11.3%
Second compound 0.003 µM, first compound 1 µM
  viability, T/C: 10.1%
Second compound 0.003 µM, first compound 3.16 µM
  viability, T/C: 12.7%
Second compound 0.003 µM, first compound 10 µM
  viability, T/C: 9.57%
[11]
  viability, T/C: 13.6%
[12]
  viability, T/C: 10.8%
Second compound 0.00949 µM, first compound 0.316 µM
  viability, T/C: 12.1%
Second compound 0.00949 µM, first compound 1 µM
  viability, T/C: 11.7%
Second compound 0.00949 µM, first compound 3.16 µM
  viability, T/C: 11.5%
Second compound 0.00949 µM, first compound 10 µM
  viability, T/C: 7.67%
[13]
  viability, T/C: 10.3%
[14]
  viability, T/C: 14.9%
Second compound 0.03 µM, first compound 0.316 µM
  viability, T/C: 10.9%
Second compound 0.03 µM, first compound 1 µM
  viability, T/C: 11.3%
Second compound 0.03 µM, first compound 3.16 µM
  viability, T/C: 10.9%
Second compound 0.03 µM, first compound 10 µM
  viability, T/C: 12.1%
[15]
  viability, T/C: 11.4%
[16]
  viability, T/C: 9.46%
Second compound 0.0949 µM, first compound 0.316 µM
  viability, T/C: 10.1%
Second compound 0.0949 µM, first compound 1 µM
  viability, T/C: 10.8%
Second compound 0.0949 µM, first compound 3.16 µM
  viability, T/C: 6.98%
Second compound 0.0949 µM, first compound 10 µM
  viability, T/C: 8.55%
[17]
  viability, T/C: 10.3%
[18]
  viability, T/C: 7.45%
Second compound 0.3 µM, first compound 0.316 µM
  viability, T/C: 7.7%
Second compound 0.3 µM, first compound 1 µM
  viability, T/C: 5.41%
Second compound 0.3 µM, first compound 3.16 µM
  viability, T/C: 6.82%
Second compound 0.3 µM, first compound 10 µM
  viability, T/C: 7.01%
